Reference: patent US20250042875A1, “PESTICIDALLY ACTIVE PYRIDAZINONE COMPOUNDS” (SYNGENTA CROP PROTECTION AG, priority 2021, published 2025)

Experiments:
Assay type in all cases: in vivo
Myzus persicae [1] = test: Activity against Myzus persicae (green peach aphid), intrinsic activity; details: 120 h, test rate 12 ppm, 5 days after infestation
Source text: Example B6: Activity Against Myzus persicae (Green Peach Aphid). Intrinsic Activity
Test compounds prepared from 10′000 ppm DMSO stock solutions were applied by pipette into 24-well microtiter plates and mixed with sucrose solution. The plates were closed with a stretched Parafilm. A plastic stencil with 24 holes was placed onto the plate and infested pea seedlings were placed directly on the Parafilm. The infested plate was closed with a gel blotting paper and another plastic stencil and then turned upside down. The samples were assessed for mortality 5 days after infestation.

Diabrotica balteata = test: Activity against Diabrotica balteata (corn root worm), maize sprouts, L2 larvae; details: 96 h, application rate 200 ppm, 4 days after infestation, read-out: control in at least one of the two categories (mortality or growth inhibition)
Experimental: Example B2: Activity Against Diabrotica Balteata (Corn Root Worm)
Maize sprouts placed onto an agar layer in 24-well microtiter plates were treated with aqueous test solutions prepared from 10′000 ppm DMSO stock solutions by spraying. After drying, the plates were infested with L2 larvae (6 to 10 per well). The samples were assessed for mortality and growth inhibition in comparison to untreated samples 4 days after infestation.

Chilo suppressalis = test: Activity against Chilo suppressalis (striped rice stemborer), artificial diet, L2 larvae; details: 144 h, application rate 200 ppm, 6 days after infestation, read-out: control in at least one of the three categories (mortality, anti-feedant effect, or growth inhibition)
Experimental: Example B1: Activity Against Chilo suppressalis (Striped Rice Stemborer)
24-well microtiter plates with artificial diet were treated with aqueous test solutions prepared from 10′000 ppm DMSO stock solutions by pipetting. After drying, the plates were infested with L2 larvae (6-8 per well). The samples were assessed for mortality, anti-feeding effect, and growth inhibition in comparison to untreated samples 6 days after infestation. Control of Chilo suppressalis by a test sample is given when at least one of the categories mortality, anti-feedant effect, and growth inhibition is higher than the untreated sample.

Spodoptera littoralis = test: Activity against Spodoptera littoralis (Egyptian cotton leaf worm), cotton leaf discs, L1 larvae; details: foliar, 72 h, application rate 200 ppm, 3 days after infestation, read-out: control in at least one of the three categories (mortality, anti-feedant effect, or growth inhibition)
Experimental: Example B8: Activity Against Spodoptera littoralis (Egyptian Cotton Leaf Worm)
Cotton leaf discs were placed onto agar in 24-well microtiter plates and sprayed with aqueous test solutions prepared from 10′000 ppm DMSO stock solutions. After drying the leaf discs were infested with five L1 larvae. The samples were assessed for mortality, anti-feeding effect, and growth inhibition in comparison to untreated samples 3 days after infestation. Control of Spodoptera littoralis by a test sample is given when at least one of the categories mortality, anti-feedant effect, and growth inhibition is higher than the untreated sample.

Myzus persicae [2] = test: Activity against Myzus persicae (green peach aphid), feeding/contact activity; details: 144 h, application rate 200 ppm, 6 days after infestation
Experimental: Example B5: Activity Against Myzus persicae (Green Peach Aphid). Feeding/Contact Activity
Sunflower leaf discs were placed onto agar in a 24-well microtiter plate and sprayed with aqueous test solutions prepared from 10′000 ppm DMSO stock solutions. After drying, the leaf discs were infested with an aphid population of mixed ages. The samples were assessed for mortality 6 days after infestation.

Plutella xylostella = test: Activity against Plutella xylostella (diamond back moth), artificial diet, eggs; details: 192 h, application rate 200 ppm, 8 days after infestation, read-out: control in at least one of the two categories (mortality or growth inhibition)
Experimental: Example B7: Activity Against Plutella xylostella (Diamond Back Moth)
24-well microtiter plates with artificial diet were treated with aqueous test solutions prepared from 10′000 ppm DMSO stock solutions by pipetting. After drying, Plutella eggs were pipetted through a plastic stencil onto a gel blotting paper and the plate was closed with it. The samples were assessed for mortality and growth inhibition in comparison to untreated samples 8 days after infestation.

CC(NC(=O)c1cc(Cl)cc(C(F)(F)F)c1)c1nccnc1-c1ccc(=O)n(C)n1 (stereo not shown) [P7, 3-chloro-N-[1-[3-(1-methyl-6-oxo-pyridazin-3-yl)pyrazin-2-yl]ethyl]-5-(trifluoromethyl)benzamide]
≥ 80%: mortality at 12 ppm (Myzus persicae [1]) | percent control (mortality or growth inhibition) at 200 ppm (Diabrotica balteata) | percent control (mortality, anti-feedant effect or growth inhibition) at 200 ppm (Chilo suppressalis) | percent control (mortality, anti-feedant effect or growth inhibition) at 200 ppm (Spodoptera littoralis) | mortality at 200 ppm (Myzus persicae [2]) | percent control (mortality or growth inhibition) at 200 ppm (Plutella xylostella)

CC(NC(=O)c1cc(Br)cc(C(F)(F)F)c1)c1nccnc1-c1ccc(=O)n(C)n1 (stereo not shown) [P10, 3-bromo-N-[1-[3-(1-methyl-6-oxo-pyridazin-3-yl)pyrazin-2-yl]ethyl]-5-(trifluoromethyl)benzamide]
≥ 80%: mortality at 12 ppm (Myzus persicae [1]) | percent control (mortality or growth inhibition) at 200 ppm (Diabrotica balteata) | percent control (mortality, anti-feedant effect or growth inhibition) at 200 ppm (Chilo suppressalis) | percent control (mortality, anti-feedant effect or growth inhibition) at 200 ppm (Spodoptera littoralis) | mortality at 200 ppm (Myzus persicae [2]) | percent control (mortality or growth inhibition) at 200 ppm (Plutella xylostella)

CCn1nc(-n2ncnc2[C@H](C)NC(=O)c2cc(Cl)cc(S(=O)(=O)C(F)(F)F)c2)ccc1=O [P17, 3-chloro-N-[(1S)-1-[2-(1-ethyl-6-oxo-pyridazin-3-yl)-1,2,4-triazol-3-yl]ethyl]-5-(trifluoromethylsulfonyl)benzamide]
≥ 80%: mortality at 12 ppm (Myzus persicae [1]) | percent control (mortality or growth inhibition) at 200 ppm (Diabrotica balteata) | percent control (mortality, anti-feedant effect or growth inhibition) at 200 ppm (Chilo suppressalis) | percent control (mortality, anti-feedant effect or growth inhibition) at 200 ppm (Spodoptera littoralis) | mortality at 200 ppm (Myzus persicae [2]) | percent control (mortality or growth inhibition) at 200 ppm (Plutella xylostella)

C[C@@H](c1ncnn1C1=NN(C)C(=O)CC1)N(C)C(=O)c1cc(Cl)cc(S(=O)(=O)C(F)(F)F)c1 [P22, 3-chloro-N-methyl-N-[(1S)-1-[2-(1-methyl-6-oxo-4,5-dihydropyridazin-3-yl)-1,2,4-triazol-3-yl]ethyl]-5-(trifluoromethylsulfonyl) benzamide]
≥ 80%: mortality at 12 ppm (Myzus persicae [1]) | percent control (mortality or growth inhibition) at 200 ppm (Diabrotica balteata) | percent control (mortality, anti-feedant effect or growth inhibition) at 200 ppm (Chilo suppressalis) | percent control (mortality, anti-feedant effect or growth inhibition) at 200 ppm (Spodoptera littoralis) | mortality at 200 ppm (Myzus persicae [2]) | percent control (mortality or growth inhibition) at 200 ppm (Plutella xylostella)

CC(NC(=O)c1cc(C(F)(F)F)cc(C2(C#N)CC2)c1)c1nccnc1-c1ccc(=O)n(C)n1 (stereo not shown) [P24, 3-(1-cyanocyclopropyl)-N-[1-[3-(1-methyl-6-oxo-pyridazin-3-yl)pyrazin-2-yl]ethyl]-5-(trifluoromethyl) benzamide]
≥ 80%: mortality at 12 ppm (Myzus persicae [1]) | percent control (mortality, anti-feedant effect or growth inhibition) at 200 ppm (Chilo suppressalis) | percent control (mortality, anti-feedant effect or growth inhibition) at 200 ppm (Spodoptera littoralis) | mortality at 200 ppm (Myzus persicae [2]) | percent control (mortality or growth inhibition) at 200 ppm (Plutella xylostella)

CC(NC(=O)c1cc(Cl)nc(C2(C#N)CC2)c1)c1nccnc1-c1ccc(=O)n(C)n1 (stereo not shown) [P34, 2-chloro-6-(1-cyanocyclopropyl)-N-[1-[3-(1-methyl-6-oxo-pyridazin-3-yl)pyrazin-2-yl]ethyl]pyridine-4-carboxamide]
≥ 80%: mortality at 12 ppm (Myzus persicae [1]) | percent control (mortality, anti-feedant effect or growth inhibition) at 200 ppm (Chilo suppressalis) | percent control (mortality, anti-feedant effect or growth inhibition) at 200 ppm (Spodoptera littoralis) | mortality at 200 ppm (Myzus persicae [2]) | percent control (mortality or growth inhibition) at 200 ppm (Plutella xylostella)

CC(NC(=O)c1cc(Br)cc(C(F)(F)F)c1)c1nccnc1-c1cn(CC(F)F)c(=O)cn1 (stereo not shown) [P49, 3-bromo-N-[1-[3-[4-(2,2-difluoroethyl)-5-oxo-pyrazin-2-yl]pyrazin-2-yl]ethyl]-5-(trifluoromethyl)benzamide]
≥ 80%: mortality at 12 ppm (Myzus persicae [1]) | percent control (mortality or growth inhibition) at 200 ppm (Diabrotica balteata) | percent control (mortality, anti-feedant effect or growth inhibition) at 200 ppm (Chilo suppressalis) | percent control (mortality, anti-feedant effect or growth inhibition) at 200 ppm (Spodoptera littoralis) | mortality at 200 ppm (Myzus persicae [2]) | percent control (mortality or growth inhibition) at 200 ppm (Plutella xylostella)
